# Data reported in US20250019385A1, “SPIROCYCLIC ANNULATED 2-AMINO-3-CYANO THIOPHENES AND DERIVATIVES FOR THE TREATMENT OF CANCER” (Boehringer Ingelheim International GmbH, priority 2023, published 2025).
# Test system: not listed separately
# Test: Solubility measurement (DMSO solution precipitation method)
# Format: physicochemical
# Conditions: aqueous buffer, kinetic from dmso stock, McIlvaine buffer pH 4.5, 24 h, read-out: solubility pH 4.5
# Description: A 10 mM DMSO stock solution of a test compound is used to determine its aq. solubility. The DMSO solution is diluted with an aq. medium (McIlvaine buffer with pH=4.5 or 6.8) to a final concentration of 250 μM. After 24 h of shaking at ambient temperature a potentially formed precipitate is removed by filtration. The concentration of the test compound in the filtrate is determined by LC-UV methods by calibrating the signal to the signal of a reference solution with complete dissolution of the test compound in acetonitrile/water (1:1) with known concentration.
row,solubility at 24 h,SMILES
1,> 155 µg/mL,C[C@H](Oc1nc(-c2onc3c2CCC[C@@]32CCCc3sc(N)c(C#N)c32)nc2c1n(C)c(=O)n2C1COC1)[C@@H]1CCCN1C [I-24]
2,124 µg/mL,C[C@H](Oc1nc(-c2onc3c2CCC[C@@]32CCCc3sc(N)c(C#N)c32)nc2c1n(C)c(=O)n2[C@H]1CO[C@@H](C)C1)[C@@H]1CC[C@H](C)N1C [I-50]
3,> 153 µg/mL,CO[C@H]1CCN(C)[C@@H]1[C@H](C)Oc1nc(-c2onc3c2CCC[C@@]32CCCc3sc(N)c(C#N)c32)nc2c1n(C)c(=O)n2[C@H]1COC[C@@H](C)C1 [I-51]
4,> 132 µg/mL,C[C@H](Oc1nc(-c2onc3c2CCC[C@@]32CCCc3sc(N)c(C#N)c32)nc2c1n(C)c(=O)n2[C@H]1CO[C@@H](C)C1)[C@@H]1CCCN1C [I-47]
5,> 153 µg/mL,CO[C@@H]1C[C@@H]([C@H](C)Oc2nc(-c3onc4c3CCC[C@@]43CCCc4sc(N)c(C#N)c43)nc3c2n(C)c(=O)n3[C@H]2COC[C@@H](C)C2)N(C)C1 [I-52]

# Same assay, conditions: aqueous buffer, kinetic from dmso stock, McIlvaine buffer pH 6.8, 24 h, read-out: solubility pH 6.8
row,solubility at 24 h,SMILES
1,> 140 µg/mL,C[C@H](Oc1nc(-c2onc3c2CCC[C@@]32CCCc3sc(N)c(C#N)c32)nc2c1n(C)c(=O)n2C1COC1)[C@@H]1CCCN1C [I-24]
2,103 µg/mL,C[C@H](Oc1nc(-c2onc3c2CCC[C@@]32CCCc3sc(N)c(C#N)c32)nc2c1n(C)c(=O)n2[C@H]1CO[C@@H](C)C1)[C@@H]1CC[C@H](C)N1C [I-50]
3,< 1 µg/mL,CO[C@H]1CCN(C)[C@@H]1[C@H](C)Oc1nc(-c2onc3c2CCC[C@@]32CCCc3sc(N)c(C#N)c32)nc2c1n(C)c(=O)n2[C@H]1COC[C@@H](C)C1 [I-51]
4,101 µg/mL,C[C@H](Oc1nc(-c2onc3c2CCC[C@@]32CCCc3sc(N)c(C#N)c32)nc2c1n(C)c(=O)n2[C@H]1CO[C@@H](C)C1)[C@@H]1CCCN1C [I-47]
5,< 1 µg/mL,CO[C@@H]1C[C@@H]([C@H](C)Oc2nc(-c3onc4c3CCC[C@@]43CCCc4sc(N)c(C#N)c43)nc3c2n(C)c(=O)n3[C@H]2COC[C@@H](C)C2)N(C)C1 [I-52]

# Test system: LOVO cells
# Test: LOVO CTG proliferation assay (120 h) (CRC, G13D)
# Format: cell-based
# Conditions: Homo sapiens
# Description: (§1) LOVO cells (ATCC No. CCL-229) are dispensed into black 384-well plates, flat and clear bottom (Greiner, PNr. 781091) at a density of 1000 cells per well in 60 μl DMEM (Sigma D6429)+10% FCS (fetal calf serum, HyClone, SH30084.03). Cells are incubated overnight at 37° C. in a humidified tissue culture incubator at 5% CO2. Compounds (10 mM stock in DMSO) are added at logarithmic dose series using the ECHO acoustic liquid handler system (Beckman Coulter), normalizing for added DMSO and including DMSO controls. All compound treatments are performed in technical duplicates. For the TO time point measurement, untreated cells are analyzed at the time of compound addition. Plates are incubated for 120 h, and cell viability is measured using CellTiter-Glo luminescent cell viability reagent (Promega product code G7570). Viability (stated as percent of control) is defined as relative luminescence units RLU of each well divided by the RLU of cells in DMSO controls. IC50 values are determined from viability measurements by non-linear regression using a four-parameter model.
# (§2) IC50 values of representative compounds according to the invention measured with these assays in the indicated cell lines are presented in Table 46.
row,IC50,SMILES
1,235 nM,C[C@H](Oc1nc(-c2onc3c2CCC[C@@]32CCCc3sc(N)c(C#N)c32)nc2c1n(C)c(=O)n2C1COC1)[C@@H]1CCCN1C [I-24]
2,120 nM,CCn1c(=O)n([C@@H]2CCCOC2)c2nc(-c3onc4c3CCC[C@@]43CCCc4sc(N)c(C#N)c43)nc(OCC3(CN4CCCC4)CC3)c21 [I-35]
3,11 nM,C[C@H](Oc1nc(-c2noc3c2CCC[C@@]32CCCc3sc(N)c(C#N)c32)nc2c1CCCO[C@]21CCOC1)[C@@H]1CCCN1C [II-10]
4,7 nM,C[C@H](Oc1nc(-c2noc3c2CCC[C@@]32SCCc3sc(N)c(C#N)c32)nc2c1COC[C@]21CCOC1)[C@@H]1CCCN1C [II-16]

# Test system: NCI-H358 cells
# Test: NCI-H358 CTG proliferation assay (120 h) (NSCLC, G12C)
# Format: cell-based
# Conditions: Homo sapiens
# Description: as §1, with “NCI-H358” for “LOVO”, “CRL-5807)” for “CCL-229)”, “200” for “1000”, “RPMI-1640 ATCC-Formulation (Gibco #A10491)+10%” for “DMEM (Sigma D6429)+10%”, “serum).” for “serum, HyClone, SH30084.03).”
# as §2
row,IC50,SMILES
1,93 nM,C[C@H](Oc1nc(-c2onc3c2CCC[C@@]32CCCc3sc(N)c(C#N)c32)nc2c1n(C)c(=O)n2C1COC1)[C@@H]1CCCN1C [I-24]
2,232 nM,CCn1c(=O)n([C@@H]2CCCOC2)c2nc(-c3onc4c3CCC[C@@]43CCCc4sc(N)c(C#N)c43)nc(OCC3(CN4CCCC4)CC3)c21 [I-35]
3,5 nM,C[C@H](Oc1nc(-c2noc3c2CCC[C@@]32CCCc3sc(N)c(C#N)c32)nc2c1CCCO[C@]21CCOC1)[C@@H]1CCCN1C [II-10]
4,1 nM,C[C@H](Oc1nc(-c2noc3c2CCC[C@@]32SCCc3sc(N)c(C#N)c32)nc2c1COC[C@]21CCOC1)[C@@H]1CCCN1C [II-16]

# Target: KRAS (G12D)::SOS1 protein-protein interaction (Homo sapiens (Human), UniProt P01116, G12D)
# Test: KRAS::SOS1 AlphaScreen binding assay (KRAS G12D)
# Conditions: GDP
# From the text: This assay can be used to examine the potency with which compounds according to the invention binding to (mutated) KRAS inhibit the protein-protein interaction between SOS1 and (mutated) KRAS e.g. KRAS G12C, KRAS G12D. […] Low IC50 values in this assay setting are indicative of strong inhibition of protein-protein interaction between SOS1 and KRAS:
# These assays measure the inhibitory effect of compounds on KRAS mutant protein-protein interactions using the Alpha Screen technology by Perkin Elmer.
# The following (mutant) enzyme forms of KRAS and interacting proteins are used in these assays at the given concentrations:
# KRAS (G12D) 1-169, N-terminal 6His-tag, C-terminal avi-tag (Xtal BioStructures, Inc.); final assay concentration 10 nM and SOS1 564-1049, N-terminal 229 GST-tag, TEV cleavage site (Viva Biotech Ltd); final assay concentration 5 nM;
# Test compounds dissolved in DMSO are dispensed onto assay plates (Proxiplate 384 PLUS, white, PerkinElmer; 6008289) using an Access Labcyte Workstation with the Labcyte Echo 55x. For the chosen highest assay concentration of 100 μM, 150 nL of compound solution are transferred from a 10 mM DMSO compound stock solution. A series of eleven fivefold dilutions per compound are transferred to the assay plate, compound dilutions are tested in duplicates. DMSO are added as backfill to a total volume of 150 nL.
# The assays run on a fully automated robotic system in a darkened room below 100 Lux. To 150 nl of compound dilution 10 μl of a mix including KRAS mutant protein, SOS1 (final assay concentrations see above) and GDP nucleotide (Sigma G7127; final assay concentration 10 μM) in assay buffer (1×PBS, 0.1% BSA, 0.05% Tween 20) are added into columns 1-24.
# After 30 minutes incubation time 5 μl of Alpha Screen bead mix in assay buffer are added into columns 1-23. Bead mix consists of AlphaLISA Glutathione Acceptor Beads (PerkinElmer, Cat No AL109) and AlphaScreen Streptavidin Donor Beads (PerkinElmer Cat No 6760002) in assay buffer at a final assay concentration of 10 μg/mL each.
# Plates are kept at room temperature in a darkened incubator. After an additional 60 minutes incubation time the signal is measured in a PerkinElmer Envision HTS Multilabel Reader using the AlphaScreen specs from PerkinElmer.
# Each plate contains up to 16 wells of a negative control depending on the dilution procedure (platewise or serial) (DMSO instead of test compound; with KRAS mutant::SOS1 GOP mix and bead mix; column 23) and 16 wells of a positive control (DMSO instead of test compound; with KRAS mutant::SOS1 GOP mix w/o bead mix; column 24).
# As internal control known inhibitors of KRAS mutant::SOS1 interaction can be measured on each compound plate.
# IC50 values are calculated and analyzed with Boehringer Ingelheim's MEGALAB C50 application using a 4 parametric logistic model.
# Tables of example compounds disclosed herein contain IC50 values determined using the above assays (see Table 43).
# Chain of KRAS (G12D)::SOS1 protein-protein interaction (P01116 other isoform, or with tags, fused parts or gaps G12D): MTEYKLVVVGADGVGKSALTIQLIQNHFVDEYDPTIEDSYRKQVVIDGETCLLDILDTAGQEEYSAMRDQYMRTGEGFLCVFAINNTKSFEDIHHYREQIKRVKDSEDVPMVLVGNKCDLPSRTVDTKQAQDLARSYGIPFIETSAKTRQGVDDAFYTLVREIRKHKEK
row,IC50,SMILES
1,3 nM,C[C@H](Oc1nc(-c2onc3c2CCC[C@@]32CCCc3sc(N)c(C#N)c32)nc2c1n(C)c(=O)n2C1COC1)[C@@H]1CCCN1C [I-24]
2,7 nM,CCn1c(=O)n([C@@H]2CCCOC2)c2nc(-c3onc4c3CCC[C@@]43CCCc4sc(N)c(C#N)c43)nc(OCC3(CN4CCCC4)CC3)c21 [I-35]
3,4 nM,C[C@H](Oc1nc(-c2onc3c2CCC[C@@]32CCCc3sc(N)c(C#N)c32)nc2c1n(C)c(=O)n2[C@H]1CO[C@@H](C)C1)[C@@H]1CC[C@H](C)N1C [I-50]
4,2 nM,CO[C@H]1CCN(C)[C@@H]1[C@H](C)Oc1nc(-c2onc3c2CCC[C@@]32CCCc3sc(N)c(C#N)c32)nc2c1n(C)c(=O)n2[C@H]1COC[C@@H](C)C1 [I-51]
5,1 nM,C[C@H](Oc1nc(-c2noc3c2CCC[C@@]32CCCc3sc(N)c(C#N)c32)nc2c1CCCO[C@]21CCOC1)[C@@H]1CCCN1C [II-10]
6,1 nM,C[C@H](Oc1nc(-c2onc3c2CCC[C@@]32CCCc3sc(N)c(C#N)c32)nc2c1n(C)c(=O)n2[C@H]1CO[C@@H](C)C1)[C@@H]1CCCN1C [I-47]
7,1 nM,CO[C@@H]1C[C@@H]([C@H](C)Oc2nc(-c3onc4c3CCC[C@@]43CCCc4sc(N)c(C#N)c43)nc3c2n(C)c(=O)n3[C@H]2COC[C@@H](C)C2)N(C)C1 [I-52]
8,1 nM,C[C@H](Oc1nc(-c2noc3c2CCC[C@@]32SCCc3sc(N)c(C#N)c32)nc2c1COC[C@]21CCOC1)[C@@H]1CCCN1C [II-16]

# Test system: not listed separately
# Test: Plasma protein binding assay (PPB), equilibrium dialysis
# Format: in vitro ADME
# Conditions: bovine, 10% FCS in PBS, read-out: PPB 10% FCS (% fu)
# Description: Binding of test compounds to plasma was determined using equilibrium dialysis (ED) and quantitative mass spectrometry interfaced with liquid chromatography (LC-MS). In brief, ED was performed with dialysis devices consisting of two chambers separated by a semipermeable membrane with a molecular weight cut-off of 5-10 kg/mol. One chamber was filled with 10% FCS in PBS containing 1-10 μmol/L test compound and the other chamber was filled with phosphate-buffer saline (PBS) with or without dextran. The dialysis chamber was incubated for 3-5 hours at 37° C. After incubation, protein was precipitated from aliquots of each chamber and the concentration of test compound in the supernatant of the plasma-containing compartment (cserum) and of the buffer-containing compartment (cbuffer) was determined by LC-MS. The fraction of unbound test compound (not bound to plasma) (f) was calculated according to the following equation: […]
row,fraction unbound,SMILES
1,0.18,C[C@H](Oc1nc(-c2onc3c2CCC[C@@]32CCCc3sc(N)c(C#N)c32)nc2c1n(C)c(=O)n2C1COC1)[C@@H]1CCCN1C [I-24]
2,0.07,CCn1c(=O)n([C@@H]2CCCOC2)c2nc(-c3onc4c3CCC[C@@]43CCCc4sc(N)c(C#N)c43)nc(OCC3(CN4CCCC4)CC3)c21 [I-35]
3,0.09,C[C@H](Oc1nc(-c2onc3c2CCC[C@@]32CCCc3sc(N)c(C#N)c32)nc2c1n(C)c(=O)n2[C@H]1CO[C@@H](C)C1)[C@@H]1CC[C@H](C)N1C [I-50]
4,0.07,CO[C@H]1CCN(C)[C@@H]1[C@H](C)Oc1nc(-c2onc3c2CCC[C@@]32CCCc3sc(N)c(C#N)c32)nc2c1n(C)c(=O)n2[C@H]1COC[C@@H](C)C1 [I-51]
5,0.28,C[C@H](Oc1nc(-c2noc3c2CCC[C@@]32CCCc3sc(N)c(C#N)c32)nc2c1CCCO[C@]21CCOC1)[C@@H]1CCCN1C [II-10]
6,0.13,C[C@H](Oc1nc(-c2onc3c2CCC[C@@]32CCCc3sc(N)c(C#N)c32)nc2c1n(C)c(=O)n2[C@H]1CO[C@@H](C)C1)[C@@H]1CCCN1C [I-47]
7,0.06,CO[C@@H]1C[C@@H]([C@H](C)Oc2nc(-c3onc4c3CCC[C@@]43CCCc4sc(N)c(C#N)c43)nc3c2n(C)c(=O)n3[C@H]2COC[C@@H](C)C2)N(C)C1 [I-52]
